Source: patent publication US20250115595A1, “INHIBITORS OF HYPOXIA-INDUCIBLE FACTORS” (The Johns Hopkins University, priority 2021, published 2025)

Legend:
C57BL/6 mice = assay: Retinal safety after intraocular injection (ERG, histology, RGC count); format: in vivo, mouse
Procedure: To reduce the risk of systemic side effects while optimizing the delivery of drugs to retinal tissue, therapies for ocular vascular disease are often administered by intravitreal injection. Therefore, it was assessed whether […] causes retinal toxicity following intraocular administration. To this end, ERGs up to 5 weeks were examined following a single intraocular injection of increasing doses (70, 140, 210, and 350 ng) of 32-134D.
To assess whether a higher dose of 32-134D could facilitate less frequent administration, the safety of higher doses of intraocular administration of 32-134D was assessed. To this end, ERGs up to 2 weeks following a single intraocular injection of high doses (500 and 1,000 ng) of 32-134D were examined.
Intraocular injections: Intravitreal injections were performed with a PLI-100A Pico-liter Microinjector (Warner Instruments, Harvard Bioscience) using pulled-glass micropipettes. Each micropipette was calibrated to deliver a 1 μl volume on depression of a foot switch. The mice were anesthetized with a ketamine (100 mg/kg) and xylazine (5 mg/kg) mixture, and under a dissecting microscope, the sharpened tip of the micropipette was passed through the sclera just posterior to the limbus into the vitreous cavity and the foot switch was depressed, which caused fluid to penetrate into the vitreous space. Test compound was injected into the vitreous cavity in OIR and STZ mice for vascular permeability test, retinal vasculature and lysates for WB and qPCR analysis.
Flash scotopic ERGs: All procedures were performed under dim red light. Mice were dark adapted overnight, anesthetized with ketamine (50 mg/kg) and xylazine (5 mg/kg) and pupils were dilated with a topical drop of tropicamide (1%). Scotopic ERG responses were measured using the Celeris ERG stimulator (Diagnosys, Lowell, MA) at flash intensities of 0.025, 0.25, 2.5, 7.96, and 79.06 cd/s/m2. ERGs were measured simultaneously from both eyes with a ground electrode placed into the forehead between the eyes and a reference electrode into the hip.

HIF-1α = target: T1, HIF-1α (Homo sapiens, UniProt Q16665); assay: Immunoblot of HIF-1α accumulation in hypoxic MIO-M1 cells; format: cell-based
T1 construct: endogenous in cells; host or cells: MIO-M1 (immortalized human Müller glial cell line), hypoxia
Procedure: (§1) It has previously been reported that the cells in the inner nuclear layer of the retina that express VEGF in response to hypoxia/ischemia are Müller glial cells (X. Xin et al., Proc Natl Acad Sci USA 110, E3425-3434 (2013)). […] The effects of 32-134D on HIF-1α accumulation persisted up to 16 hours after treatment of cultured cells (FIG. 27B).
Pharmacokinetic analysis of 32-134D in the neurosensory retina following intraocular administration was determined by liquid chromatography and tandem mass spectrometry (LC-MS/MS) to quantify the concentration of 32-134D in retinal tissue over 14 days following a single 70-ng intraocular injection of 32-134D (see Methods of all parameters). […] The total exposure (area under the curve or AUClast) was 72.3 nmol*day/g.
(§2) Cells culture and reagents: MIO-M1 cells were a gift from Dr. Astrid Limb (University College London, Institute of Ophthalmology, London, United Kingdom). MIO-M1 and HUVEC cells were cultured in DMEM with 10% (vol/vol) FBS (Quality Biological) and 1% penicillin/streptomycin (Cellgro). Hypoxia chambers were used to expose cells. Evans Blue (E2129) was purchased from Sigma-Aldrich.
Immunoblot assays and ELISAs: Cell, neurosensory retina, and D120 retinal organoid lysates were subjected to 4-15% gradient SDS/PAGE (Invitrogen). […]

[1] = system: HIF-regulated angiogenic genes; assay: mRNA expression in hypoxic HUVECs; format: cell-based, human; conditions: 1 or 10 μM, 4 hours
From the text: Vascular endothelial cells also secrete angiogenic mediators that contribute to the progression of diabetic eye disease (Y. Qin et al., Sci Adv 8, eabm1896 (2022)). Exposure of human umbilical vein endothelial cells (HUVECs) to hypoxia induced HIF-1α and HIF-2α protein accumulation, which was inhibited by 32-134D (FIG. 30). […] Of note, ANGPT2 and VE-PTP, two emerging targets for the treatment of diabetic eye disease, are both expressed specifically by vascular cells (G. Fachinger, et al., Oncogene 18, 5948-5953 (1999); P. C. Maisonpierre et al., Science 277, 55-60 (1997)).
Reverse transcription and quantitative real-time PCR: Total RNA was isolated from cultured cells or retinas with PureLink™ RNA Mini Kit (Invitrogen #12183025), and cDNA was prepared with MuLV Reverse Transcriptase (Applied Biosystems). Quantitative real-time PCR was performed with Power SYBR Green PCR Master Mix (Applied Biosystems) and MyiQ Real-Time PCR Detection System (Bio-Rad). Normalization was done using cyclophilin A for mouse tissue and human cell lines.

HIF-1α and HIF-2α = assay: Immunoblot of HIF-1α and HIF-2α accumulation in hypoxic MIO-M1 cells; format: cell-based, human; conditions: as little as 1 μM, 4 hours
Procedure: as §1, §2
Immunoblot assays and ELISAs: Cell, neurosensory retina, and D120 retinal organoid lysates were subjected to 4-15% gradient SDS/PAGE (Invitrogen). Immunoblot assays were performed as previously described (X. Xin et al., 2013, Proc Natl Acad Sci USA 110, E3425-3434).

Hepa1-6 HCC tumors = assay: Hepa1-6 tumor growth in syngeneic C57L mice; format: in vivo, mouse; conditions: 32-134D 40 mg/kg/d intraperitoneal
Procedure: To test whether 32-134D inhibits HCC growth in an immunocompetent mouse model, Hepa1-6 HCC cells were injected into the flank of syngeneic C57L mice (Darlington G J et al., J Natl Cancer Inst. 1980; 64(4):809-819). When tumors became palpable (treatment day 1), mice received daily intraperitoneal injections of 32-134D (40 mg/kg/d) versus vehicle control, or anti-Pd1 antibody versus IgG2a isotype control ([…] on days 1, 4, 7, 10, and 16), or both 32-134D and anti-Pd1. Tumors grew very rapidly in all mice treated with vehicle or IgG2a, necessitating euthanasia on or before day 24 (FIG. 9). Tumors regressed in 5 out of 12 mice treated with anti-Pd1, but two tumors recurred after the last antibody treatment (on day 16) for a tumor eradication rate of only 25%. […] Thus, addition of 32-134D increased the percentage of mice with a durable complete response to anti-Pd1 immune checkpoint blockade from 25% to 67%.
Protocols were approved by the Johns Hopkins University Animal Care and Use Committee and used in accordance with the NIH Guide for the Care and Use of Laboratory Animals (National Research Council, 2011). Female nude mice (NCI Athymic NCr-nu/nu) and male C57L/J mice were purchased from Charles River and The Jackson Laboratory, respectively. Hep3B (8×106) and Hepa1-6 (1×107) cells were implanted subcutaneously in 6- to 8-week-old mice, and tumor volume was calculated: V=abc×0.52. […]

T1 sequence (Q16665 whole entry): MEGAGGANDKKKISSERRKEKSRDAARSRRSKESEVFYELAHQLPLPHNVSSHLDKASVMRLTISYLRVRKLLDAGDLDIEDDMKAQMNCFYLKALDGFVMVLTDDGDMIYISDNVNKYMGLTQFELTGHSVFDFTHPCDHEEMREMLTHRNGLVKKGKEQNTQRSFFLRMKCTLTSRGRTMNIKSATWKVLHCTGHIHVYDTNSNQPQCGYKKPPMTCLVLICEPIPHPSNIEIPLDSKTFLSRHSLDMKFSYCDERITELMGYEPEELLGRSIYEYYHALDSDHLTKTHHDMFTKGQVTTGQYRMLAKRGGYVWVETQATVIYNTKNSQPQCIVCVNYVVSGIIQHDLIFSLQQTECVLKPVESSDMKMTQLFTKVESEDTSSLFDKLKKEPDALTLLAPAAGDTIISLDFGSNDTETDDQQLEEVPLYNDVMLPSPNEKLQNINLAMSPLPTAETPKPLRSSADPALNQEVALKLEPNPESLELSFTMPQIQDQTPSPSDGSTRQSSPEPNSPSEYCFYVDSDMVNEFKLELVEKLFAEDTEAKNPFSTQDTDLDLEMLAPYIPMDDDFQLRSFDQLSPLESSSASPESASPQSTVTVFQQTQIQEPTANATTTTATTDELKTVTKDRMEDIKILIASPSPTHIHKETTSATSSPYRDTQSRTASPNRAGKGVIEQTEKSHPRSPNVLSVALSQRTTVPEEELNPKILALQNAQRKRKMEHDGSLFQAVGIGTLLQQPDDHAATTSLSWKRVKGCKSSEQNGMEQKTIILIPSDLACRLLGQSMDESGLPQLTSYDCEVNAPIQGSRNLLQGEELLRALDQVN

Brc1ccc2c(-c3csc(-c4c[nH]c5c(Br)cccc45)n3)c[nH]c2c1 [Compound 32-134D, 4-(6-bromo-1H-indol-3-yl)-2-(7-bromo-1H-indol-3-yl)thiazole]
retinal histology including GCL (C57BL/6 mice; 35 days after intraocular injection of up to 350 ng): normal histology
number of RGCs on retinal flat mounts (C57BL/6 mice; highest doses tested (210 or 350 ng), 35 days): unaffected
ERG evidence of retina toxicity (C57BL/6 mice; single intraocular injection 70, 140, 210, 350 ng, up to 5 weeks): no ERG evidence of retina toxicity
ERG evidence of retina toxicity (C57BL/6 mice; single intraocular injection 500 and 1,000 ng, up to 2 weeks): no ERG evidence of retina toxicity
persistence of effect on HIF-1α accumulation after treatment (HIF-1α; 10 μM): up to 16 hours
IC50 (HIF-1α; hypoxia 4 hours, quantitation of immunoblots, read-out: IC50 of HIF-1α protein accumulation): 3.5 µM
hypoxia-increased ANGPT2 and VEPTP mRNA expression [1]: inhibited
hypoxia-induced VEGF and ANGPTL4 mRNA expression [1]: effectively inhibited
HIF-1α and HIF-2α protein accumulation in response to hypoxia (HIF-1α and HIF-2α): decreased
mice with tumor eradication (Hepa1-6 HCC tumors): 4 of 12
tumor growth (Hepa1-6 HCC tumors): marked inhibition of tumor growth in all mice
